The source of these data is patent US6325989A, “Form of dipeptidylpeptidase IV (CD26) found in human serum” (Dana-Farber Cancer Institute, Inc., priority 1995, dated 2001).

The subject of test [1] is soluble serum DPPIV/CD26, 175 kDa form, purified from normal human serum. Kind of test: DPPIV activity assay (hydrolysis of Gly-Pro-pNA; Michaelis-Menten kinetics and inhibition). The class given is biochemical. As for the experimental part:
(§1) The DPPIV enzyme activities of the rsCD26 and serum DPPIV were analyzed by Michaelis-Menten kinetics by assessing kinetics of hydrolysis of substrate at different concentrations. […] To further exclude the possibility that we had purified irrelevant aminopeptidases which, working in concert or by sequential hydrolysis, could release the pNA chromophore from substrate, we tested a number of substrates which could be hydrolyzed by non-DPPIV aminopeptidases. One candidate for sequential hydrolysis is aminopeptidase M (3.4.11.2), but no hydrolysis of Ala-pNA, Arg-pNA or Leu-pNA was observed and activity by aminopolypeptidase (3.4.11.14) may be similarly excluded. The substrate succinyl-Gly-Pro-pNA was also not hydrolyzed. The only substrate apart from the dipeptide chromatogen Gly-Pro-pNA which could be hydrolyzed was Val-Ala-pNA, which was cleaved by both the serum DPPIV and rsCD26 (relative to rate of hydrolysis of Gly-Pro-pNA, hydrolysis of Val-Ala-pNA was 0.098 and 0.079, for rsCD26 and serum DPPIV, respectively). Although DPPIV primarily hydrolyses dipeptides with a proline in the penultimate position, it is well documented that alanine in the penultimate position may also render a dipeptide sequence susceptible to cleavage by DPPIV (8). […]
The primary substrate used for determining DPPIV activity in all assays was Gly-Pro-p-nitroanilide (Gly-Pro-pNA; Sigma), which is hydrolyzed by DPPIV to release pNA absorbing strongly at 405 nm. […] Inhibition of the hydrolysis of Gly-Pro-pNA was determined in the presence of the specific DPPIV inhibitor Diprotin A (Bachem, King of Prussia, Pa.). […] The pH optimum was determined substituting phosphate buffer (100 mM, pH4.5-pH9) in place of standard incubation buffer.
Serum DPPIV was prepared by isolating from 100 ml of pooled normal human male AB serum the fraction of protein precipitated by 50-70% saturated ammonium sulfate. […] The DPPIV activity was eluted by a 0-0.5M NaCl gradient in equilibration buffer and all DPPIV activity was found in the 10 mM-50 mM NaCl eluate (determined by conductance). […]

Test [2] has as its target T1, recombinant soluble CD26 (rsCD26), full extracellular domain of human T cell membrane CD26/DPPIV, 105 kDa form, from transfected CHO cells (Homo sapiens, UniProt P27487).
T1 construct: The full extracellular domain of T cell membrane-expressed CD26 (rsCD26); made in house; host or cells: transfected CHO cells
Described as above. In kind it is biochemical. On the procedure:
as §1, with “respectively).” for “respectively). Although DPPIV primarily hydrolyses dipeptides with a proline in the penultimate position, it is well documented that alanine in the penultimate position may also render a dipeptide sequence susceptible to cleavage by DPPIV (8).”
The primary substrate used for determining DPPIV activity in all assays was Gly-Pro-p-nitroanilide (Gly-Pro-pNA; Sigma), which is hydrolyzed by DPPIV to release pNA absorbing strongly at 405 nm. […] Inhibition of the hydrolysis of Gly-Pro-pNA was determined in the presence of the specific DPPIV inhibitor Diprotin A (Bachem, King of Prussia, Pa.). […]

[3] abbreviates: Lineweaver-Burke transformation.
[4] abbreviates: unit defined at pH7.6 and 20° C.

Structures are written as SMILES. Residues, ends and D or L forms follow the SMILES beside them. *: point of attachment. pNA = O=[N+]([O-])c1ccc(N*)cc1

T1 sequence (P27487 29-766 limits assumed): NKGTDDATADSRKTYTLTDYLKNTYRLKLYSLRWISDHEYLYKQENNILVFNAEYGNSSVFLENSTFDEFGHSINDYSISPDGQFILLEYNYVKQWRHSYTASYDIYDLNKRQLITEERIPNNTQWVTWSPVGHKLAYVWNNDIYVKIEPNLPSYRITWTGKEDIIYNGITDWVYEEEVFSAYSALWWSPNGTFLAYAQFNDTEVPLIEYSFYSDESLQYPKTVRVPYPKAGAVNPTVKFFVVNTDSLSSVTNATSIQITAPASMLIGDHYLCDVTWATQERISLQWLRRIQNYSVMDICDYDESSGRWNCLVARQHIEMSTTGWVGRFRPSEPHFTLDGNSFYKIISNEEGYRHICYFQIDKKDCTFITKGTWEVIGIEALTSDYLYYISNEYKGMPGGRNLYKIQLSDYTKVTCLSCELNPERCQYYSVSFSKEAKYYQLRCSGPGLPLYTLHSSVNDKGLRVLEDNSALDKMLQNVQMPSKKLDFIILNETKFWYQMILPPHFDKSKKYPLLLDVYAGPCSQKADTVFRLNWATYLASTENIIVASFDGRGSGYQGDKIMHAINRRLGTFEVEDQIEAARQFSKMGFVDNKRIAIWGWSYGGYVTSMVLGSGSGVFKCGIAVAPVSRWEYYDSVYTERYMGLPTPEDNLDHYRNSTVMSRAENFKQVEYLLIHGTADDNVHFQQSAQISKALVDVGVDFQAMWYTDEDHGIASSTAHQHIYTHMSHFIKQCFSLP

`CC[C@H](C)[C@H](N)C(=O)N1CCC[C@H]1C(=O)N[C@H](C(=O)O)[C@@H](C)CC` [Diprotin A]: 250 µM corresponded to half-maximal inhibition in test [1] (substrate Gly-Pro-pNA) (IC50).

Turning to `NCC(=O)N1CCC[C@H]1C(=O)Nc1ccc([N+](=O)[O-])cc1` [Gly-Pro-pNA, Gly-Pro-p-nitroanilide] (H-Gly-Pro-pNA), the Km in test [1] (setting [3]) and in test [2] (setting [3]) was 280 µM throughout. The “Vmax, using Gly-Pro-pNA as substrate” value in test [1] (setting [4]) came to 0.65 U/nmol serum DPPIV; in test [2] (setting [4]) it was 1.52 U/nmol rsCD26.
